Structures are written as SMILES.

The values that follow come from patent US20100272696A1, “Human Bone-Forming Cells In The Treatment of Inflammatory Rheumatic Diseases” (BONE THERAPEUTICS S.A., priority 2007, published 2010).

Assay [1] relates to Carrageenan-Induced Ankle/Paw Inflammation. The assay is described as follows: Model of Carrageenan-Induced Ankle/Paw Inflammation (1). It counts as in vivo, SWISS mice. To be noted: DEX 1 mg/kg, OB 1*10^6, FIG. 3. Here is the method:
Sigma, Switzerland) in PBS into the hind paw of 8 weeks old SWISS mice; each animal receiving a single injection in each hind paw (Table 3). […] Sigma Switzerland) at a concentration of 1 mg/kg, or 1*10^6 human bone-forming cells (OB) (derived from bone marrow mesenchymal stromal cells as described in Example 1A) or a combination of DEX and OB. [table]
For orientation: The carrageenan paw model is a standard test of acute inflammation.

The test system is the same in assay [2]. The assay is described as follows: Model of Carrageenan-Induced Ankle/Paw Inflammation (2). It counts as in vivo, SWISS mice. To be noted: DEX 1 mg/kg, OB 1*10^6, FIG. 4. Here is the method:
Inflammation was induced by injection of a solution containing 1% lambda carrageenan (CARRA; Sigma, Switzerland) in PBS into the hind paw of 8 weeks old SWISS mice; each animal receiving a single injection in each hind paw (Table 4). Carrageenan injected animals received immediately after injection or PBS only, or a solution of Dexamethasone (DEX; Sigma Switzerland) at a concentration of 1 mg/kg, or 1*10^6 human bone-forming cells (OB) (derived from bone marrow mesenchymal stromal cells as described in Example 1A).
Under isoflurane sedation, the circumference of ankles and paws was measured using a digital caliper before the injection at T0 and at T1, T4, T6 and T24; respectively before CARRA administration, and 1 h, 4 h, 6 h and 24 hours after the injection.

Regarding `C[C@@H]1C[C@H]2[C@@H]3CCC4=CC(=O)C=C[C@]4(C)[C@@]3(F)[C@@H](O)C[C@]2(C)[C@@]1(O)C(=O)CO` [Dexamethasone], the “inhibition of inflammation (ankle diameter)” value in assay [1] (1 h after carrageenan) and in assay [1] (4 h after carrageenan) was 100% each time. Further, the “inhibition of inflammation (paw diameter)” value in assay [2] (1 h after carrageenan) came out at 100%; in assay [2] (6 h after carrageenan) it was 70%; in assay [2] (24 h after carrageenan), 38%.
